In the supplement of paper PMC10307832:

Assays:
Assay in all cases: relative viability (nuclei count vs DMSO), 5 days (fraction); higher = more cells survive
Omipalisib = compound: COc1ncc(-c2ccc3nccc(-c4ccnnc4)c3c2)cc1NS(=O)(=O)c1ccc(F)cc1F [Omipalisib]
In short: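 Hoechst staining, done together with fixation and permeabilisation, marked nuclei for 4× imaging and MetaXpress counting. This followed 5 days without medium change after lung cancer cell lines, kept overnight at 37 °C in 1536-well plates, were pinned with five library-drug doses (not always all listed) spaced by √10 on vehicle-anchored plates. Viability is the ratio of treated-well to vehicle-well nuclei, expressed as a median across plates. Plates passed only at control CV below 25% with at least one doubling.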

Omipalisib + Navitoclax = compound: COc1ncc(-c2ccc3nccc(-c4ccnnc4)c3c2)cc1NS(=O)(=O)c1ccc(F)cc1F [Omipalisib] + CC1(C)CCC(c2ccc(Cl)cc2)=C(CN2CCN(c3ccc(C(=O)NS(=O)(=O)c4ccc(N[C@H](CCN5CCOCC5)CSc5ccccc5)c(S(=O)(=O)C(F)(F)F)c4)cc3)CC2)C1 [Navitoclax] (partner 0.5 µM)
In short: (§1)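 Relative viability divides the nuclei count in treated wells by that in vehicle wells. Lung cancer cell lines were seeded in 1536-well plates, dosed by pin tool the next day, and fixed and stained after 5 days in one step with final 0.05% Triton X-100, 1% formaldehyde and 1 ug/ml Hoechst. Dosing was a single drug or a fixed anchor-drug dose plus five library-drug doses (not always all listed) in √10 steps, and values are medians of duplicate plates imaged at 4×.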

Omipalisib + Alpelisib = compound: COc1ncc(-c2ccc3nccc(-c4ccnnc4)c3c2)cc1NS(=O)(=O)c1ccc(F)cc1F [Omipalisib] + Cc1nc(NC(=O)N2CCC[C@H]2C(N)=O)sc1-c1ccnc(C(C)(C)C(F)(F)F)c1 [Alpelisib] (partner 2 µM)
In short: as §1

Omipalisib + Crizotinib = compound: COc1ncc(-c2ccc3nccc(-c4ccnnc4)c3c2)cc1NS(=O)(=O)c1ccc(F)cc1F [Omipalisib] + C[C@@H](Oc1cc(-c2cnn(C3CCNCC3)c2)cnc1N)c1c(Cl)ccc(F)c1Cl [Crizotinib] (partner 1 µM)
In short: as §1

Omipalisib + Bortezomib = compound: COc1ncc(-c2ccc3nccc(-c4ccnnc4)c3c2)cc1NS(=O)(=O)c1ccc(F)cc1F [Omipalisib] + CC(C)C[C@H](NC(=O)[C@H](Cc1ccccc1)NC(=O)c1cnccn1)B(O)O [Bortezomib] (partner 0.002 µM)
In short: as §1

Omipalisib + Olaparib = compound: COc1ncc(-c2ccc3nccc(-c4ccnnc4)c3c2)cc1NS(=O)(=O)c1ccc(F)cc1F [Omipalisib] + O=C(c1cc(Cc2n[nH]c(=O)c3ccccc23)ccc1F)N1CCN(C(=O)C2CC2)CC1 [Olaparib] (partner 8 µM)
In short: as §1

Omipalisib + Lapatinib = compound: COc1ncc(-c2ccc3nccc(-c4ccnnc4)c3c2)cc1NS(=O)(=O)c1ccc(F)cc1F [Omipalisib] + CS(=O)(=O)CCNCc1ccc(-c2ccc3ncnc(Nc4ccc(OCc5cccc(F)c5)c(Cl)c4)c3c2)o1 [Lapatinib] (partner 2 µM)
In short: as §1

Omipalisib + Pictilisib = compound: COc1ncc(-c2ccc3nccc(-c4ccnnc4)c3c2)cc1NS(=O)(=O)c1ccc(F)cc1F [Omipalisib] + CS(=O)(=O)N1CCN(Cc2cc3nc(-c4cccc5[nH]ncc45)nc(N4CCOCC4)c3s2)CC1 [Pictilisib] (partner 1 µM)
In short: as §1

Omipalisib + Linsitinib = compound: COc1ncc(-c2ccc3nccc(-c4ccnnc4)c3c2)cc1NS(=O)(=O)c1ccc(F)cc1F [Omipalisib] + C[C@]1(O)C[C@@H](c2nc(-c3ccc4ccc(-c5ccccc5)nc4c3)c3c(N)nccn32)C1 [Linsitinib] (partner 1 µM)
In short: as §1

Omipalisib + Foretinib = compound: COc1ncc(-c2ccc3nccc(-c4ccnnc4)c3c2)cc1NS(=O)(=O)c1ccc(F)cc1F [Omipalisib] + COc1cc2c(Oc3ccc(NC(=O)C4(C(=O)Nc5ccc(F)cc5)CC4)cc3F)ccnc2cc1OCCCN1CCOCC1 [Foretinib] (partner 0.25 µM)
In short: as §1

Omipalisib + Vorinostat = compound: COc1ncc(-c2ccc3nccc(-c4ccnnc4)c3c2)cc1NS(=O)(=O)c1ccc(F)cc1F [Omipalisib] + O=C(CCCCCCC(=O)Nc1ccccc1)NO [Vorinostat] (partner 1 µM)
In short: as §1

Omipalisib + Palbociclib = compound: COc1ncc(-c2ccc3nccc(-c4ccnnc4)c3c2)cc1NS(=O)(=O)c1ccc(F)cc1F [Omipalisib] + CC(=O)c1c(C)c2cnc(Nc3ccc(N4CCNCC4)cn3)nc2n(C2CCCC2)c1=O [Palbociclib] (partner 0.5 µM)
In short: as §1

Omipalisib + Tozasertib = compound: COc1ncc(-c2ccc3nccc(-c4ccnnc4)c3c2)cc1NS(=O)(=O)c1ccc(F)cc1F [Omipalisib] + Cc1cc(Nc2cc(N3CCN(C)CC3)nc(Sc3ccc(NC(=O)C4CC4)cc3)n2)n[nH]1 [Tozasertib] (partner 0.1 µM)
In short: as §1

Omipalisib + Phenformin = compound: COc1ncc(-c2ccc3nccc(-c4ccnnc4)c3c2)cc1NS(=O)(=O)c1ccc(F)cc1F [Omipalisib] + N=C(N)NC(=N)NCCc1ccccc1 [Phenformin] (partner 250 µM)
In short: as §1

Omipalisib + Decitabine = compound: COc1ncc(-c2ccc3nccc(-c4ccnnc4)c3c2)cc1NS(=O)(=O)c1ccc(F)cc1F [Omipalisib] + Nc1ncn([C@H]2C[C@H](O)[C@@H](CO)O2)c(=O)n1 [Decitabine] (partner 2 µM)
In short: as §1

Omipalisib + OSI-027 = compound: COc1ncc(-c2ccc3nccc(-c4ccnnc4)c3c2)cc1NS(=O)(=O)c1ccc(F)cc1F [Omipalisib] + COc1cccc2cc(-c3nc([C@H]4CC[C@H](C(=O)O)CC4)n4ncnc(N)c34)[nH]c12 [OSI-027] (partner 0.5 µM)
In short: as §1

Omipalisib + Luminespib = compound: COc1ncc(-c2ccc3nccc(-c4ccnnc4)c3c2)cc1NS(=O)(=O)c1ccc(F)cc1F [Omipalisib] + CCNC(=O)c1noc(-c2cc(C(C)C)c(O)cc2O)c1-c1ccc(CN2CCOCC2)cc1 [Luminespib] (partner 0.01 µM)
In short: as §1

Omipalisib + Trametinib = compound: COc1ncc(-c2ccc3nccc(-c4ccnnc4)c3c2)cc1NS(=O)(=O)c1ccc(F)cc1F [Omipalisib] + CC(=O)Nc1cccc(-n2c(=O)n(C3CC3)c(=O)c3c(Nc4ccc(I)cc4F)n(C)c(=O)c(C)c32)c1 [Trametinib] (partner 0.02 µM)
In short: as §1

Omipalisib + Pemetrexed = compound: COc1ncc(-c2ccc3nccc(-c4ccnnc4)c3c2)cc1NS(=O)(=O)c1ccc(F)cc1F [Omipalisib] + Nc1nc2[nH]cc(CCc3ccc(C(=O)N[C@@H](CCC(=O)O)C(=O)O)cc3)c2c(=O)[nH]1 [Pemetrexed] (partner 0.2 µM)
In short: as §1

Omipalisib + AZD7762 = compound: COc1ncc(-c2ccc3nccc(-c4ccnnc4)c3c2)cc1NS(=O)(=O)c1ccc(F)cc1F [Omipalisib] + NC(=O)Nc1cc(-c2cccc(F)c2)sc1C(=O)N[C@H]1CCCNC1 [AZD7762] (partner 0.2 µM)
In short: as §1

Omipalisib + Dasatinib = compound: COc1ncc(-c2ccc3nccc(-c4ccnnc4)c3c2)cc1NS(=O)(=O)c1ccc(F)cc1F [Omipalisib] + Cc1nc(Nc2ncc(C(=O)Nc3c(C)cccc3Cl)s2)cc(N2CCN(CCO)CC2)n1 [Dasatinib] (partner 0.075 µM)
In short: as §1

Which results are given for IA-LM?
relative viability (Omipalisib; 0.0003 µM): 0.888; relative viability (Omipalisib; 0.003 µM): 0.764; relative viability (Omipalisib; 0.03 µM): 0.355; relative viability (Omipalisib + Navitoclax; first compound 0.0003 µM): 0.92; relative viability (Omipalisib + Navitoclax; first compound 0.003 µM): 0.847; relative viability (Omipalisib + Navitoclax; first compound 0.03 µM): 0.251; relative viability (Omipalisib + Alpelisib; first compound 0.0003 µM): 0.785; relative viability (Omipalisib + Alpelisib; first compound 0.003 µM): 0.793; relative viability (Omipalisib + Alpelisib; first compound 0.03 µM): 0.373; relative viability (Omipalisib + Crizotinib; first compound 0.0003 µM): 0.906; relative viability (Omipalisib + Crizotinib; first compound 0.003 µM): 0.682; relative viability (Omipalisib + Crizotinib; first compound 0.03 µM): 0.288; relative viability (Omipalisib + Bortezomib; first compound 0.0003 µM): 1.01; relative viability (Omipalisib + Bortezomib; first compound 0.003 µM): 0.818; relative viability (Omipalisib + Bortezomib; first compound 0.03 µM): 0.258; relative viability (Omipalisib + Olaparib; first compound 0.0003 µM): 0.903; relative viability (Omipalisib + Olaparib; first compound 0.003 µM): 0.85; relative viability (Omipalisib + Olaparib; first compound 0.03 µM): 0.602; relative viability (Omipalisib + Lapatinib; first compound 0.0003 µM): 0.95; relative viability (Omipalisib + Lapatinib; first compound 0.003 µM): 0.703; relative viability (Omipalisib + Lapatinib; first compound 0.03 µM): 0.251; relative viability (Omipalisib + Pictilisib; first compound 0.0003 µM): 0.45; relative viability (Omipalisib + Pictilisib; first compound 0.003 µM): 0.317; relative viability (Omipalisib + Pictilisib; first compound 0.03 µM): 0.197; relative viability (Omipalisib + Linsitinib; first compound 0.0003 µM): 0.636; relative viability (Omipalisib + Linsitinib; first compound 0.003 µM): 0.571; relative viability (Omipalisib + Linsitinib; first compound 0.03 µM): 0.243; relative viability (Omipalisib + Foretinib; first compound 0.0003 µM): 1.27; relative viability (Omipalisib + Foretinib; first compound 0.003 µM): 0.997; relative viability (Omipalisib + Foretinib; first compound 0.03 µM): 0.683; relative viability (Omipalisib + Vorinostat; first compound 0.0003 µM): 0.873; relative viability (Omipalisib + Vorinostat; first compound 0.003 µM): 0.916; relative viability (Omipalisib + Vorinostat; first compound 0.03 µM): 0.25

NCI-H522 was tested. Which relative viability (Omipalisib; 0.0003 µM) did it give?
The relative viability was 0.838.

What about the relative viability (Omipalisib; 0.003 µM) of the same cell line?
The relative viability was 0.912.

And the relative viability (Omipalisib; 0.03 µM)?
The relative viability was 0.694.

What about the relative viability (Omipalisib + Palbociclib; first compound 0.0003 µM) of the same cell line?
Its relative viability is 1.01.

And the relative viability (Omipalisib + Palbociclib; first compound 0.003 µM)?
The relative viability was 0.823.

And the relative viability (Omipalisib + Palbociclib; first compound 0.03 µM)?
Its relative viability is 0.532.

And the relative viability (Omipalisib + Tozasertib; first compound 0.0003 µM)?
Its relative viability is 0.515.

And the relative viability (Omipalisib + Tozasertib; first compound 0.003 µM)?
The relative viability was 0.451.

What about the relative viability (Omipalisib + Tozasertib; first compound 0.03 µM) of the same cell line?
Its relative viability is 0.438.

And the relative viability (Omipalisib + Phenformin; first compound 0.0003 µM)?
Its relative viability is 0.604.

What about the relative viability (Omipalisib + Phenformin; first compound 0.003 µM) of the same cell line?
Its relative viability is 0.559.

What about the relative viability (Omipalisib + Phenformin; first compound 0.03 µM) of the same cell line?
The relative viability was 0.583.

And the relative viability (Omipalisib + Olaparib; first compound 0.0003 µM)?
The relative viability was 0.532.

What about the relative viability (Omipalisib + Olaparib; first compound 0.003 µM) of the same cell line?
The relative viability was 0.614.

And the relative viability (Omipalisib + Olaparib; first compound 0.03 µM)?
Its relative viability is 0.505.

And the relative viability (Omipalisib + Decitabine; first compound 0.0003 µM)?
Its relative viability is 0.665.

And the relative viability (Omipalisib + Decitabine; first compound 0.003 µM)?
Its relative viability is 0.596.

And the relative viability (Omipalisib + Decitabine; first compound 0.03 µM)?
The relative viability was 0.595.

And the relative viability (Omipalisib + OSI-027; first compound 0.0003 µM)?
Its relative viability is 0.69.

And the relative viability (Omipalisib + OSI-027; first compound 0.003 µM)?
Its relative viability is 0.641.

What about the relative viability (Omipalisib + OSI-027; first compound 0.03 µM) of the same cell line?
The relative viability was 0.531.

What about the relative viability (Omipalisib + Luminespib; first compound 0.0003 µM) of the same cell line?
Its relative viability is 1.04.

And the relative viability (Omipalisib + Luminespib; first compound 0.003 µM)?
Its relative viability is 1.89.

And the relative viability (Omipalisib + Luminespib; first compound 0.03 µM)?
The relative viability was 0.652.

And the relative viability (Omipalisib + Trametinib; first compound 0.0003 µM)?
Its relative viability is 0.746.

What about the relative viability (Omipalisib + Trametinib; first compound 0.003 µM) of the same cell line?
The relative viability was 0.604.

And the relative viability (Omipalisib + Trametinib; first compound 0.03 µM)?
The relative viability was 0.443.

What about the relative viability (Omipalisib + Pemetrexed; first compound 0.0003 µM) of the same cell line?
The relative viability was 0.963.

What about the relative viability (Omipalisib + Pemetrexed; first compound 0.003 µM) of the same cell line?
Its relative viability is 0.932.

And the relative viability (Omipalisib + Pemetrexed; first compound 0.03 µM)?
Its relative viability is 0.636.

What about the relative viability (Omipalisib + AZD7762; first compound 0.0003 µM) of the same cell line?
The relative viability was 0.652.

And the relative viability (Omipalisib + AZD7762; first compound 0.003 µM)?
Its relative viability is 0.58.

What about the relative viability (Omipalisib + AZD7762; first compound 0.03 µM) of the same cell line?
Its relative viability is 0.839.

What about the relative viability (Omipalisib + Dasatinib; first compound 0.0003 µM) of the same cell line?
The relative viability was 0.857.

And the relative viability (Omipalisib + Dasatinib; first compound 0.003 µM)?
Its relative viability is 0.745.

And the relative viability (Omipalisib + Dasatinib; first compound 0.03 µM)?
The relative viability was 0.626.

What about the relative viability (Omipalisib + Vorinostat; first compound 0.0003 µM) of the same cell line?
The relative viability was 0.837.

What about the relative viability (Omipalisib + Vorinostat; first compound 0.003 µM) of the same cell line?
Its relative viability is 0.766.

And the relative viability (Omipalisib + Vorinostat; first compound 0.03 µM)?
Its relative viability is 0.724.
